According to patent US20050101674A1, “PPMP as a ceramide catabolism inhibitor for cancer treatment” (priority 2003, published 2005):
Where two headings read alike, the source gives them in different places.

Legend:
[1] = test system: SK-N-RA neuroblastoma cells; assay: DIMSCAN cytotoxicity assay in SK-N-RA cells; assay type: cell-based; details: combined with 4-HPR, +96 h
Excerpt: (§1) In the following examples, the DIMSCAN assay is a cell survival assay, not merely an apoptosis assay, and therefore reflects cancer cell killing due to both apoptosis and necrosis. DIMSCAN correlates directly with more traditional clonogenic assays. Moreover, DIMSCAN drug resistance profiles of cell lines correlate with prior patient therapy. DIMSCAN has successfully predicted clinical activity in high-risk neuroblastoma patients for the following new agents: 13-cis-retinoic acid, BSO+L-PAM, and fenretinide. Cytotoxicity assays are performed in 96 well microplates using a semi automated Digital Image Microscopy (DIMSCAN) system that has a dynamic range of greater than 4-5 logs of cell kill. Briefly, following incubation with study drugs, fluorescein diacetate [10 μg/ml (a vital stain)] is added to the microplate and incubated for twenty minutes. Eosin-Y (800 μg/ml) is then added to quench background fluorescence in the medium and non-viable cells. The plates are then read on an inverted microscope with the relative fluorescence of each well determined by the video imaging system software designed for the DIMSCAN system. […]
Survival fraction was measured using a digital imaging fluorescence-based microscopy assay (DIMSCAN) with approximately 5 log sensitivity. […]

[2] = test system: SK-N-RA neuroblastoma cells; assay: Ceramide and glucosylceramide levels by [3H]-palmitic acid labeling and thin-layer chromatography, SK-N-RA; assay type: cell-based; details: for 4-HPR-induced glycosylceramide increase: FIG. 9 right panel; for 4-HPR-induced ceramide level / 4-HPR-induced glucosylceramide level: with 4-HPR 10 μM
Method: Assays were performed at +24 h.
SK-N-RA neuroblastoma cells were exposed to drugs at 10 μM concentrations for the time indicated.

[3] = test system: PC-3 prostate cancer cells; assay: DIMSCAN cytotoxicity assay in PC-3 cells; assay type: cell-based; details: PC-3, combined with 4-HPR, +96 h
Excerpt: as §1, with “system. We have done comparison studies and have shown that the relative fluorescent values obtained by DIMSCAN correlate to cell density (standard counts by trypan blue exclusion) and clonogenicity assays.” for “system.”

[4] = test system: PC-3 prostate cancer cells; assay: Ceramide by [3H]-palmitic acid labeling and thin-layer chromatography, PC-3; details: PC-3, drug 10 μM, +24 h
Method: Lipids were assayed by labeling with [^3H]-palmitic acid and thin-layer chromatography at +24 h. […] Synergy assayed by Combination Index (C.I.): synergy, C.I.<1; additive, C.I.=1; antagonism, C.I.>1. Statistical analysis is by student's t-test.

[5] = Plasma levels after intravenous formulations of 4-HPR; assay type: in vivo
[6] = Continuous venous infusion (c.i.v.) of 4-HPR in rats; assay type: in vivo
Excerpt: Utilizing intravenous formulations, we have directly tested continuous venous infusion (c.i.v.) in rats. […] Accordingly, the anti-tumor activity of 4-HPR will be increased by other agents which modulate the metabolism of ceramide, such as inhibitors of glucosylceramide synthase and 1-O-acylceramide synthase.

[7] = test system: cell lines of neuroblastoma, PNET/Ewing's sarcoma, breast and lung cancer; assay: 4-HPR ceramide increase in tumor cell lines; assay type: cell-based
Excerpt: (§2) 4-HPR has been reported to increase Reactive Oxygen Species (ROS) in certain, but not all, solid tumor cell lines and leukemia cell lines in vitro as a mechanism of cytotoxicity. […] We, therefore, have explored alternative mechanisms of 4-HPR cytotoxicity.

[8] = test system: normal fibroblasts, bone marrow myeloid progenitors, peripheral blood mononuclear cells, EBV-immortalized lymphoblastoid cell line; assay: 4-HPR cytotoxicity in normal and non-malignant cells; assay type: cell-based; details: doses cytotoxic to cancer cell lines in vitro
Excerpt: Having established the potential of high-dose 4-HPR to treat resistant neuroblastoma, in order to investigate the therapeutic index of 4-HPR, we examined the cytotoxicity of 4-HPR in normal and non-malignant cell lines in vitro. […] Accordingly, 4-HPR cytotoxicity is most likely a malignancy-specific event, and high-dose 4-HPR may have an acceptable therapeutic index in vivo.

[9] = test system: normal fibroblasts, peripheral blood mononuclear cells, EBV-immortalized lymphoid cell line; assay: 4-HPR ceramide in normal and non-transformed cells; assay type: cell-based; details: in vitro
Excerpt: Accordingly, the ability of 4-HPR to increase ceramide by de novo synthesis is most likely a malignancy (transformed phenotype)-specific event. Further, high-dose 4-HPR will have a favorable therapeutic index in vivo. Moreover, second agents that inhibit ceramide catabolism will also have a favorable therapeutic index in combination with 4-HPR, as normal tissues will not increase ceramide in response to 4-HPR.

[10] = test system: serine palmitoyltransferase; assay: Direct assay of enzymatic activity, serine palmitoyltransferase; assay type: biochemical
Excerpt: (§3) We have determined in solid tumor and ALL cell lines in vitro, that the ceramide increased by 4-HPR treatment was derived from de novo synthesis.

ceramide synthase = assay: Direct assay of enzymatic activity, ceramide synthase; assay type: biochemical
Excerpt: as §3

[11] = test system: six pediatric ALL cell lines; assay: 4-HPR and D,L-threo-PPMP cytotoxicity in ALL cell line panel; assay type: cell-based
[12] = test system: two neuroblastoma cell lines; assay: Reactive oxygen species in neuroblastoma cell lines; assay type: cell-based
Excerpt: as §2

[13] = adults, high-dose oral; cited from earlier work
[14] = low-dose 4-HPR; cited from earlier work
[15] = test system: variety of cancer cell lines; details: cancer cell lines in vitro; cited from earlier work
[16] = pediatrics, oral, cited from earlier work
CEM = assay: DIMSCAN cytotoxicity, ALL cell line CEM; assay type: cell-based; details: 4-HPR+PPMP 1:1 molar ratio, +96 hours
Excerpt: as §1, with “system. We have done comparison studies and have shown that the relative fluorescent values obtained by DIMSCAN correlate to cell density (standard counts by trypan blue exclusion) and clonogenicity assays.” for “system.”

MOLT-3 = assay: DIMSCAN cytotoxicity, ALL cell line MOLT-3; assay type: cell-based; details: MOLT-3, 4-HPR+PPMP 1:1 molar ratio, +96 hours
Excerpt: as §1, with “system. We have done comparison studies and have shown that the relative fluorescent values obtained by DIMSCAN correlate to cell density (standard counts by trypan blue exclusion) and clonogenicity assays.” for “system.”

MOLT-4 = assay: DIMSCAN cytotoxicity, ALL cell line MOLT-4; assay type: cell-based; details: MOLT-4, 4-HPR+PPMP 1:1 molar ratio, +96 hours
Excerpt: as §1, with “system. We have done comparison studies and have shown that the relative fluorescent values obtained by DIMSCAN correlate to cell density (standard counts by trypan blue exclusion) and clonogenicity assays.” for “system.”

NALM-6 = assay: DIMSCAN cytotoxicity, ALL cell line NALM-6; assay type: cell-based; details: NALM-6, 4-HPR+PPMP 1:1 molar ratio, +96 hours
Excerpt: as §1, with “system. We have done comparison studies and have shown that the relative fluorescent values obtained by DIMSCAN correlate to cell density (standard counts by trypan blue exclusion) and clonogenicity assays.” for “system.”

SMS-SB = assay: DIMSCAN cytotoxicity, ALL cell line SMS-SB; assay type: cell-based; details: 4-HPR+PPMP 1:1, +96 hours
Excerpt: (§4) In the following examples, the DIMSCAN assay is a cell survival assay, not merely an apoptosis assay, and therefore reflects cancer cell killing due to both apoptosis and necrosis. DIMSCAN correlates directly with more traditional clonogenic assays. Moreover, DIMSCAN drug resistance profiles of cell lines correlate with prior patient therapy. DIMSCAN has successfully predicted clinical activity in high-risk neuroblastoma patients for the following new agents: 13-cis-retinoic acid, BSO+L-PAM, and fenretinide. Cytotoxicity assays are performed in 96 well microplates using a semi automated Digital Image Microscopy (DIMSCAN) system that has a dynamic range of greater than 4-5 logs of cell kill. Briefly, following incubation with study drugs, fluorescein diacetate [10 μg/ml (a vital stain)] is added to the microplate and incubated for twenty minutes. Eosin-Y (800 μg/ml) is then added to quench background fluorescence in the medium and non-viable cells. The plates are then read on an inverted microscope with the relative fluorescence of each well determined by the video imaging system software designed for the DIMSCAN system. We have done comparison studies and have shown that the relative fluorescent values obtained by DIMSCAN correlate to cell density (standard counts by trypan blue exclusion) and clonogenicity assays. The present invention is explained in greater detail in the following non-limiting examples.
(§5) Assayed by DIMSCAN at +96 hours. •=4-HPR; ▪=PPMP; □=4-HPR+PPMP; (1:1 molar ratio).

NALL-1 = assay: DIMSCAN cytotoxicity, ALL cell line NALL-1; assay type: cell-based; details: 4-HPR+PPMP 1:1, +96 hours
Excerpt: as §4, §5

intact cells = details: in intact cells; cited from earlier work
ALL cell lines = assay: Glucosylceramide and ceramide in ALL cell lines; details: ALL cell lines examined
[17] = test system: solid tumor and ALL cell lines; assay: Effect of de novo ceramide synthesis inhibitors on 4-HPR-induced ceramide; assay type: cell-based; details: in vitro
Excerpt: as §3

neuroblastoma cell lines = assay: Toxicity of de novo ceramide synthesis inhibitors to neuroblastoma cell lines; assay type: cell-based
[18] = test system: MCF-7/tet breast cancer cells
Method: MCF-7/tet breast cancer cells exposed to ethanol (controls), 4-HPR(H) or 4-HPR+safingol (3:1 ratio)(H+S), without or with preincubation with L-cycloserine (2 mM)(+C) and assayed by DIMSCAN assay at +96 hrs. 4-HPR (•); 4-HPR/L-cycloserine (O); 4-HPR/safingol (3:1)(▾); 4-HPR/safingol/L-cycloserine (∇); L-cycloserine (2 mM) (□).

[19] = rodents, x 10 days; cited from earlier work
[20] = test system: Ehrlich ascites tumor cells xenografts; details: in vivo; cited from earlier work
[21] = in vivo; cited from earlier work
[22] = test system: human neuroblastoma murine xenograft; assay: Human neuroblastoma murine xenograft models; assay type: in vivo; details: combined with 4-HPR

CCCCCCCCCCCCCCCC(=O)NC(CN1CCOCC1)C(O)c1ccccc1 (single isomer, unassigned) [D-threo-PPMP, D-threo-stereoisomer of 1-phenyl-2-palmitoylamino-3-morpholino-1-propanol]
synergy of 4-HPR cytotoxicity (in words) [1]: synergizes 4-HPR cytotoxicity more potently than does L-threo-PPMP
4-HPR-induced ceramide ([2]; drugs at 10 μM, FIG. 9 left panel, preliminary): increased 4-HPR-induced ceramide more than did L-threo-PPMP
4-HPR-induced glycosylceramide increase ([2]; drugs at 10 μM, preliminary): prevented
Combination Index (C.I.) of cytotoxic synergy with 4-HPR [3]: < 1
ceramide in 4-HPR-treated cells [4]: increased ceramide

CC1=C(/C=C/C(C)=C/C=C/C(C)=C/C(=O)Nc2ccc(O)cc2)C(C)(C)CCC1 [4-HPR, N-(4-hydroxyphenyl)retinamide]
ceramide level ([2]; 4-HPR 10 μM alone, +24 h): modestly increased
systemic toxicity ([5]; dog, in vivo, iv): minimal systemic toxicity
4-HPR plasma levels ([5]; intravenous formulations, rodent and canine models): 50 to 150 µM
levels of 4-HPR in plasma and tissues [6]: high, sustained levels
increase of ceramide ([7]; dose- and time-dependent, in vitro, 'up to'): up to 13 fold
time at which ceramide increase began ([7]; post exposure): less than 2 hrs
toxicity to normal and non-malignant cells [8]: minimally toxic
ceramide in normal and non-transformed cells [9]: only minimally increased ceramide
serine palmitoyltransferase activity [10]: stimulated the activities
ceramide synthase activity (ceramide synthase): stimulated the activities
4-HPR cytotoxicity ([11]; all six tested ALL cell lines in vitro): multi-log cytotoxicity
Reactive Oxygen Species (ROS) [12]: increased ROS
recommended 'practical' dose for Phase II studies [13]: 1800 mg/m^2/day
reduction in premalignant oral lesions (leukoplakia) [14]: 30%
4-HPR concentrations that are cytotoxic [15]: 1 to 12 µM
maximally tolerated dose (MTD) ([16]; 7 days every 3 weeks): 2475 mg/m^2/day
systemic toxicity ([16]; at MTD): minimal systemic toxicity

CCCCCCCCCCCCCCCC(=O)NC(CN1CCOCC1)C(O)c1ccccc1 [D,L-erythro-PPMP]
4-HPR-induced ceramide level ([2]; +24 h): further increased
4-HPR-induced glucosylceramide level ([2]; +24 h): did not affect

CCCCCCCCCCCCCCCC(=O)NC(CN1CCOCC1)C(O)c1ccccc1 [D,L-threo-PPMP, D,L-threo-(1-phenyl-2-hexadecanoylamino-3-morpholino-1-propanol)]
synergy of 4-HPR cytotoxicity (in words) [1]: more potently
4-HPR-induced ceramide level ([2]; +24 h): even more strongly increased
4-HPR-induced glucosylceramide level ([2]; +24 h): prevented glucosylceramide formation
Combination Index (C.I.) (CEM): 1
Combination Index (C.I.) (MOLT-3): < 1
Combination Index (C.I.) (MOLT-4): < 1
Combination Index (C.I.) (NALM-6): < 1
Combination Index (C.I.) (SMS-SB; 3 μM): > 1
Combination Index (C.I.) (SMS-SB; 6 μM): > 1
Combination Index (C.I.) (SMS-SB; 9 μM): 1
Combination Index (C.I.) (NALL-1; NALL-1, 3 μM): > 1
Combination Index (C.I.) (NALL-1; NALL-1, 6 μM): 1
Combination Index (C.I.) (NALL-1; NALL-1, 9 μM): < 1
number of ALL cell lines in which 4-HPR cytotoxicity was synergized ([11]; pediatric ALL cell lines): four of six
activity relative to PDMP (intact cells): 10-20 times
ceramide (ALL cell lines): increased ceramide
glucosylceramide formation (ALL cell lines): decreased glucosylceramide formation

N[C@H]1CONC1=O [L-cycloserine]
effect on ceramide increase caused by 4-HPR treatment [17]: prevented the increase of ceramide
toxicity as single agents (neuroblastoma cell lines): proved toxic of themselves
effect on 4-HPR-induced ceramide [18]: prevented ceramide increase

CCCCCCCCCCCCCCCC(=O)N[C@@H](CN1CCOCC1)[C@@H](O)c1ccccc1 [L-threo-PPMP]
4-HPR-induced glycosylceramide increase ([2]; drugs at 10 μM, preliminary): did not

CCCCCCCCCC(=O)NC(CN1CCOCC1)C(O)c1ccccc1 (stereo not drawn) [PDMP, 1-phenyl-2-[decanoylamino]-3; morpholino-1-propanol]
well tolerated dose [19]: ≤ 120 mg/kg/day
anti-tumor effect [20]: cures
half-life [21]: approximately 1 hour

CCCCCCCCCCCCCCC[C@H](O)[C@@H](N)CO [safingol, L-threo-dihydrosphingosine]
effect on anti-tumor activity of 4-HPR [22]: significantly increase the anti-tumor activity of 4-HPR

fumonisin B
effect on ceramide increase caused by 4-HPR treatment [17]: prevented the increase of ceramide
toxicity as single agents (neuroblastoma cell lines): proved toxic of themselves
